# Calls of active or inactive are those of the source. No cut-off for these calls is given here.
# Key:
# RNA demethylase ALKBH5 [1] = target: T1, RNA demethylase ALKBH5 (Homo sapiens, UniProt Q6P6C2); assay: Inhibition of ALKBH5 (66 to 292 residues)(unknown origin) expressed in Escherichia coli BL21(DE3) using 5'-ATTGTCA(m6A)CAGCAGA-FAM-3' as substrate incubated for 30 mins by FP assay
# RNA demethylase ALKBH5 [2] = target: T1, RNA demethylase ALKBH5; assay: Inhibition of ALKBH5 (66 to 292 residues)(unknown origin) expressed in Escherichia coli BL21(DE3) using 5'-TAGACATTGCCATTCTCGATAGG (m6A)-TC CGGTCAAACCTAGAC GAATTCCA-3' as substrate incubated for 2 hrs by restriction endonuclease digestion assay; conditions: dose 25-200 µM
# RNA demethylase ALKBH5 [3] = target: RNA demethylase ALKBH5 (Homo sapiens, UniProt Q6P6C2, Y139A); assay: Binding affinity to NT-647-NHS fluorescent dye-labeled ALKBH5 Y139A mutant (unknown origin) expressed in Escherichia coli BL21(DE3) using m6A-ssDNA as substrate assessed as dissociation constant incubated for 15 mins by MST assay
# RNA demethylase ALKBH5 [4] = target: RNA demethylase ALKBH5 (Homo sapiens, UniProt Q6P6C2, R277A/Y139A); assay: Binding affinity to NT-647-NHS fluorescent dye-labeled ALKBH5 Y139A/R277A mutant (unknown origin) expressed in Escherichia coli BL21(DE3) using m6A-ssDNA as substrate assessed as dissociation constant incubated for 15 mins by MST assay
# RNA demethylase ALKBH5 [5] = target: T1, RNA demethylase ALKBH5; assay: Inhibition of ALKBH5 (66 to 292 residues)(unknown origin) expressed in Escherichia coli BL21(DE3) using 5'-ATTGTCA(m6A)CAGCAGA-FAM-3' as substrate incubated for 30 mins in presence of 2 uM of 2-OG by FP based competitive binding assay
# [6] = target: Alpha-ketoglutarate-dependent dioxygenase FTO (Homo sapiens, UniProt Q9C0B1); assay: Inhibition of FTO (32 to 505 residues)(unknown origin) expressed in Escherichia coli BL21(DE3) using 5'-TAGACATTGCCATTCTCGATAGG(m6A)-TCCGGTCAAACCTAGACGAATTCCA-3' as substrate at 100 uM incubated for 2 hrs by restriction endonuclease digestion assay
# RNA demethylase ALKBH5 [7] = target: T1, RNA demethylase ALKBH5; assay: Inhibition of ALKBH5 (66 to 292 residues)(unknown origin) expressed in Escherichia coli BL21(DE3) using 5'-TAGACATTGCCATTCTCGATAGG(m6A)-TCCGGTCAAACCTAGACGAATTCCA-3' as substrate upto 100 uM incubated for 2 hrs in presence of 2-OG by restriction endonuclease digestion assay
# RNA demethylase ALKBH5 [8] = target: T1, RNA demethylase ALKBH5; assay: Inhibition of ALKBH5 in human MOLM-13 cells assessed as increase in m6A RNA level by dot blot assay; assay type: cell-based; conditions: dose <= 20.0 µM
# RNA demethylase ALKBH5 [9] = target: T1, RNA demethylase ALKBH5; assay: Inhibition of ALKBH5 in human MOLM-13 cells assessed as increase in m6A mRNA methylation level at 20 uM incubated for 48 hrs by LC-MS/MS analysis; assay type: cell-based
# MOLM-13 [10] = assay: Induction of cell cycle arrest at […] phase in human MOLM-13 cells at 20 uM incubated for 48 hrs by […]PI staining based flow cytometry; assay type: functional
# MV4-11 [11] = assay: Induction of cell cycle arrest at […] phase in human MV4-11 cells at 20 uM incubated for 48 hrs by […]PI staining based flow cytometry; assay type: functional
# MV4-11 [12] = assay: Induction of apoptosis in human MV4-11 cells assessed as viable cells at 5 uM incubated for 48 hrs by Annexin V-FITC/PI staining based flow cytometry (reference value: 89.8 %); assay type: functional; conditions: read-out: Activity
# MV4-11 [13] = assay: Induction of apoptosis in human MV4-11 cells assessed as early apoptosis cells at 5 uM incubated for 48 hrs by Annexin V-FITC/PI staining based flow cytometry (reference value: 1.24 %); assay type: functional
# MV4-11 [14] = assay: Induction of apoptosis in human MV4-11 cells assessed as necrotic cells at 5 uM incubated for 48 hrs by Annexin V-FITC/PI staining based flow cytometry (reference value: 1.81 %); assay type: functional
# MV4-11 [15] = assay: Induction of apoptosis in human MV4-11 cells assessed as late apoptosis cells at 10 uM incubated for 48 hrs by Annexin V-FITC/PI staining based flow cytometry (reference value: 7.17 %); assay type: functional
# MV4-11 [16] = assay: Induction of apoptosis in human MV4-11 cells assessed as necrotic cells at 10 uM incubated for 48 hrs by Annexin V-FITC/PI staining based flow cytometry (reference value: 1.81 %); assay type: functional
# MOLM-13 [17] = assay: Induction of apoptosis in human MOLM-13 cells assessed as viable cells at 10 uM incubated for 48 hrs by Annexin V-FITC/PI staining based flow cytometry (reference value: 89.8 %); assay type: functional; conditions: read-out: Activity
# MOLM-13 [18] = assay: Downregulation of TACC3 mRNA level in human MOLM-13 cells at 5 to 10 uM incubated for 48 hrs by qRT-PCR analysis; assay type: functional, cell-based; conditions: dose 5-10 µM
# MV4-11 [19] = assay: Downregulation of c-Myc mRNA level in human MV4-11 cells at 5 to 10 uM incubated for 48 hrs by qRT-PCR analysis; assay type: functional, cell-based; conditions: dose 5-10 µM
# MOLM-13 [20] = assay: Downregulation of c-Myc level in human MOLM-13 cells upto 10 uM incubated for 48 hrs by Western blot analysis; assay type: functional, cell-based
# HEK293 = assay: Effect on TACC3 mRNA level in HEK293 cells at 5 to 10 uM incubated for 48 hrs by qRT-PCR analysis; assay type: functional, cell-based; conditions: Homo sapiens, dose 5-10 µM
# HUVEC [21] = assay: Effect on TACC3 mRNA level in HUVEC cells at 5 to 10 uM incubated for 48 hrs by qRT-PCR analysis; assay type: functional, cell-based; conditions: Homo sapiens, dose 5-10 µM
# HUVEC [22] = assay: Effect on c-Myc mRNA level in HUVEC cells at 5 to 10 uM incubated for 48 hrs by qRT-PCR analysis; assay type: functional, cell-based; conditions: Homo sapiens, dose 5-10 µM
# [23] = Metabolic stability in human plasma assessed as half life measured upto 240 mins by LC-MS/MS analysis; assay type: ADME, cell-free
# [24] = Metabolic stability in rat liver microsomes assessed as clearance measured upto 240 mins by LC-MS/MS analysis; assay type: ADME, Microsome; conditions: read-out: CLH
# [25] = Apparent oral clearance in Sprague-Dawley rat at 2 mg/kg, iv measured for 1 to 1440 mins by LC-MS/MS analysis; assay type: ADME, organism-based; conditions: in vivo, time 1-1440 min
# MV4-11 [26] = assay: Antitumor activity against human MV4-11 cells xenografted in nude mouse assessed as tumor growth inhibition at 10 mg/kg, ip treated every day for 14 days relative to control; assay type: functional; conditions: MV4-11, 336 h, time 14 day, read-out: TGI
# [27] = Toxicity in nude mouse xenografted with human MV4-11 cells assessed as body weight change at 10 to 40 mg/kg, ip treated every day for 14 days; assay type: organism-based; conditions: in vivo, 336 h, dose 10-40 mg/kg, time 14 day
# [28] = Toxicity in nude mouse xenografted with human MV4-11 cells assessed as heart weight change at 10 to 40 mg/kg, ip treated every day for 14 days; assay type: organism-based; conditions: in vivo, 336 h, dose 10-40 mg/kg, time 14 day
# [29] = Toxicity in nude mouse xenografted with human MV4-11 cells assessed as kidney weight change at 10 to 40 mg/kg, ip treated every day for 14 days; assay type: organism-based; conditions: in vivo, 336 h, dose 10-40 mg/kg, time 14 day
structure (smiles),measurement,setting,value
O=C(OCc1ccc(C(F)(F)F)cc1)c1ccc(-c2cc3ncc(C(=O)c4c(O)ccc([N+](=O)[O-])c4O)cn3n2)cc1,IC50,RNA demethylase ALKBH5 [1],2.97 µM
same,inhibition,RNA demethylase ALKBH5 [2],Dose-Dependent Effect
same,Kd,RNA demethylase ALKBH5 [3],290 µM
same,Kd,RNA demethylase ALKBH5 [4],15.8 µM
same,IC50,RNA demethylase ALKBH5 [5],4.64 µM
same,inhibition,[6],inactive
same,inhibition,RNA demethylase ALKBH5 [7],Active
same,inhibition,RNA demethylase ALKBH5 [8],Dose-Dependent Effect
same,inhibition,RNA demethylase ALKBH5 [9],Active
same,Activity,MOLM-13 [10],Active
same,Activity,MV4-11 [11],Active
same,viability at 5 µM,MV4-11 [12],59%
same,Activity,MV4-11 [13],1.44%
same,Activity,MV4-11 [14],3.62%
same,Activity,MV4-11 [15],55.4%
same,Activity,MV4-11 [16],2.15%
same,viability at 10 µM,MOLM-13 [17],61.5%
same,Activity,MOLM-13 [18],Active
same,Activity,MV4-11 [19],Active
same,Activity,MOLM-13 [20],Active
same,Activity,HEK293,inactive
same,Activity,HUVEC [21],inactive
same,Activity,HUVEC [22],inactive
same,half-life,[23],10.4 h
same,microsomal CLint,[24],100 µL/min/mg
same,CL/F,[25],5 mL/min/kg
same,inhibition in vivo at 10 mg/kg,MV4-11 [26],56.3%
same,Activity,[27],Non-Toxic
same,Activity,[28],Non-Toxic
same,Activity,[29],Non-Toxic
